PMC7463582, “Modulation and Protection Effects of Antioxidant Compounds against Oxidant Induced Developmental Toxicity in Zebrafish” (Antioxidants, 2020)
Structures can show the parent of a compound that is named as a salt.

Columns and labels:
[1] = system: zebrafish embryos; test: animal or person; conditions: Danio rerio
[2] = system: zebrafish embryos; test: Zebrafish embryo test: lethality and dysmorphogenesis after exposure to a single oxidative stress-related compound; format: in vivo, Zebrafish (Danio rerio); conditions: for EC50: read-out: EC50 (effective concentration 50 for dysmorphogenesis)
Experimental: (§1) To characterize the effects on embryonic development produced by compounds related to OS, ZF embryos were exposed to OS inducers, modulators of antioxidant status and antioxidants. For compounds which were dissolved in DMSO and diluted with Danieau’s buffer, a vehicle negative control group with 0.05% DMSO in 0.3× Danieau’s buffer was assayed.
(§2) From 26 to 50 hpf, embryos were incubated with 0.3× Danieau’s buffer with or without DMSO, depending on the dissolution of the compound of study.
(§3) Exposure to OS inducers was conducted from 26 to 50 hpf to select the working concentrations of these compounds for the experimental design. In this case, from 2 to 26 hpf, embryos were incubated with Danieau’s buffer with or without DMSO, depending on the dissolution of the compound of study.
(§4) Exposure of ZF embryos was semi-static and was carried out in 6-well plates (Greiner Bio-one, Frickenhausen, Germany). Ten embryos per group were selected and randomly distributed into the wells and filled with 5mL of the corresponding solution of the compound. Embryos were incubated at 26 ± 1 °C with a dark–light cycle of 10–14 h. Renewal of the medium and of the solutions was made every 24 h. Evaluation of the embryos was performed at different time points. Lethality was determined at 8, 26, and 50 hpf based on egg coagulation, the absence of tail detachment, or somite formation and the absence of heartbeat. Dysmorphogenic effects were evaluated at 50 hpf by the total morphological score system described by. For each compound of study, at least three independent experiments were performed using embryos from different spawning events (n = 3).
(§5) The percentage of lethality and of dysmorphogenesis was calculated per compound at every tested concentration, and the concentration–response curves for these effects were plotted.

[3] = system: zebrafish embryos; test: animal or person; conditions: Danio rerio, read-out: EC50 (95% CI) for dysmorphogenesis of tBOOH
[4] = system: zebrafish embryos; conditions: for Change of dysmorphogenic effects of LPS / Shift of the LPS lethality concentration–effect curve / Shift of the TCHQ concentration–response curves for lethality and dysmorphogenesis / Shift of the tBOOH concentration–response curves (lethality and dysmorphogenesis) / Mortality of embryos exposed to tBOOH after pre-exposure: pre-exposure to the modulator at MTC; for Change of dysmorphogenic effects of LPS / Shift of the LPS lethality concentration–effect curve: then LPS, versus LPS alone; for Shift of the TCHQ concentration–response curves for lethality and dysmorphogenesis: then TCHQ, versus TCHQ alone; for Shift of the tBOOH concentration–response curves (lethality and dysmorphogenesis) / Mortality of embryos exposed to tBOOH after pre-exposure: then tBOOH; for Shift of the tBOOH concentration–response curves (lethality and dysmorphogenesis): versus tBOOH alone
[5] = Zebrafish embryo test: lethality and dysmorphogenesis after exposure to a single oxidative stress-related compound; format: in vivo, Zebrafish (Danio rerio); conditions: zebrafish, in vivo, read-out: LC50 (lethal concentration 50)
Experimental: as §1, §2, §3, §4, §5

[6] = in vivo; conditions: zebrafish
[7] = Danio rerio, exposure window 2–26 hpf, evaluated at 50 hpf
[8] = exposure window 2–26 hpf, not calculated, reason in footnote

Row | Compound | Change of dysmorphogenic effects of LPS [4] | Shift of the LPS lethality concentration–effect curve [4] | Shift of the TCHQ concentration–response curves for lethality and dysmorphogenesis [4] | Shift of the tBOOH concentration–response curves (lethality and dysmorphogenesis) [4] | MTC (maximum tolerable concentration) ([2]; exposure window 2–26 hpf) [µM] | EC50 [2, 7] [µM] | LC50 [5, 8] [µM] | also measured
1 | CC(C)(C)OO [Tert-butyl hydroperoxide (tBOOH), Tert-butyl hydroperoxide] | – | – | – | – | – | – | – | EC50 ([1]; read-out: EC50 (95% CI) for dysmorphogenesis of tBOOH): 1640 µM; EC50 ([2]; Danio rerio, exposure window 26–50 hpf, evaluated at 50 hpf): 1600 µM; EC50 [3]: 1640 µM
2 | CCCCS(=N)(=O)CCC(N)C(=O)O (racemic) [DL-buthionine sulfoximine (BSO), DL-buthionine sulfoximine] | no significant effects were observed | shifted the lethality concentration–effect curves significantly | statistically significant drift in the concentration–effect curves for lethality and dysmorphogenesis to lower concentrations of TCHQ | a significant shift in the concentration–response curves to lower concentrations of tBOOH | 50 | – | – | EC50 ([2]; exposure window 2–26 hpf, evaluated at 50 hpf): 2720 µM
3 | Oc1c(Cl)c(Cl)c(O)c(Cl)c1Cl [Tetrachlorohydroquinone (TCHQ), Tetrachlorohydroquinone] | – | – | – | – | – | – | – | EC50 ([1]; read-out: EC50 (95% CI) for dysmorphogenesis of TCHQ): 8.84 µM; EC50 ([2]; Danio rerio): 3.9 µM; Compound-specific dysmorphogenic effect ([2]; exposure 26–50 hpf): produced an effect in the pigmentation of the embryos; LC50 ([5]; exposure window 26–50 hpf): 16 µM; LC50 [6]: 15.2 µM
4 | CC(=O)N[C@@H](CS)C(=O)O [N-acetyl-L-cysteine (NAC), N-acetyl-L-cysteine] | no significant effects were observed | – | – | – | 250 | 921 | – | Mortality of embryos exposed to tBOOH after pre-exposure [4]: no significant effects in mortality of the embryos were observed; LC50 (95% CI) of LPS after pre-exposure to the modulator ([4]; zebrafish, in vivo, pH 7.4): 51.6 µg/mL * (48.8–54.5); LC50 (95% CI) of TCHQ after pre-exposure to the modulator ([4]; zebrafish, in vivo, pH 7.4): 19.6 µM * (16.6–23.3); LC50 ([5]; exposure window 2–26 hpf): 1870 µM
5 | COC(=O)[C@@H](N)CCCNC(N)=N[N+](=O)[O-] [Nω-nitro L-arginine methyl ester hydrochloride] | significant reduction in dysmorphogenic effects | shifted the lethality concentration–effect curves significantly | significantly shifted to higher concentrations of TCHQ | significantly drifted the tBOOH concentration–response curves to higher concentrations | 5 | 44.4 | > 100 | Mortality of embryos exposed to tBOOH after pre-exposure [4]: no significant effects in mortality of the embryos were observed
6 | O=c1c(O)c(-c2ccc(O)c(O)c2)oc2cc(O)cc(O)c12 [Quercetin, quercetin hydrate] | – | – | – | – | 20 | – | > 30 | –
7 | CCOC(=O)/C=C\C(=O)OCC [Diethyl maleate (DEM), diethyl maleate] | no significant effects were observed | shifted the lethality concentration–effect curves significantly | statistically significant drift in the concentration–effect curves for lethality and dysmorphogenesis to lower concentrations of TCHQ | a significant shift in the concentration–response curves to lower concentrations of tBOOH | 0.5 | 1.5 | < 100 | –
8 | (±)-α-tocopherol [Vit. E] | – | – | – | – | 100 | – | – | LC50 ([2]; exposure window 2–26 hpf, not calculated, reason in footnote, read-out: LC50 (lethal concentration 50)): > 30 µM
